Results on 4 molecules are retold here after ChEMBL document CHEMBL3286333, “Concise synthesis of C-1-cyano-iminosugars via a new Staudinger/aza Wittig/Strecker multicomponent reaction strategy” (Bioorg Med Chem Lett, 2014).

Assay [1] deals with T1, Lysosomal acid glucosylceramidase (Homo sapiens, UniProt P04062).
T1 sequence (P04062 whole entry): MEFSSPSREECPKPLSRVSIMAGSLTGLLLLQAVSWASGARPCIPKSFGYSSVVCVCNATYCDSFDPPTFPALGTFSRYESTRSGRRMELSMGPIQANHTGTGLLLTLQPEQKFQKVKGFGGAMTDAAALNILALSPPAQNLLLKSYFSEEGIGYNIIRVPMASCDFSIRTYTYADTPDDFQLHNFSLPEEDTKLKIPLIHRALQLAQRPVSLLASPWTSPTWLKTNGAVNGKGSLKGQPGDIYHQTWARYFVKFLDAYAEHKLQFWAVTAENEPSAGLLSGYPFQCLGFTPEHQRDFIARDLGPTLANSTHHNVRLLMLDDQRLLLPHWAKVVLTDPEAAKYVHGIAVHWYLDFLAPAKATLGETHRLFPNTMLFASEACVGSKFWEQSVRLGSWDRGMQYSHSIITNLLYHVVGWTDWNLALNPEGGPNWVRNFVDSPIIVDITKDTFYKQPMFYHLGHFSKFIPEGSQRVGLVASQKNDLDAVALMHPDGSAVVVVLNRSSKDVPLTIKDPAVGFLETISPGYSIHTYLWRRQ
Nature of the assay: Inhibition of human lysosomal beta-glucocerebrosidase.

Assay [2] has as its target T1, Lysosomal acid glucosylceramidase. Kind of assay: Inhibition of human lysosomal beta-glucocerebrosidase using 2,4-dinitrophenyl-beta-D-glucopyranoside as substrate by UV spectrophotometric analysis.

What is called Ki is the equilibrium dissociation constant of an inhibitor or competing ligand from its target. Higher therefore signals weaker binding. The molecule `O[C@@H]1[C@@H](O)[C@@H](CCCCCOCC23CC4CC(CC(C4)C2)C3)NC[C@H]1O` came in with a Ki in assay [1] of 0.001 µM.

In the case of `N#C[C@H]1NC[C@@H](O)[C@H](O)[C@H]1O`, in assay [2], the Ki amounted to 34 µM.

`N#C[C@H]1N[C@H](CO)[C@@H](O)[C@H](O)[C@H]1O` gave a Ki in assay [2] of 716 µM.

For the molecule `CN(C)c1cccc2c(S(=O)(=O)NC[C@H]3NC[C@@H](O)[C@H](O)[C@H]3O)cccc12`, the Ki in assay [2] stood at 0.0075 µM.
